Reference: patent US10245271B2, “Treatment of impaired cognitive flexibility with TrkB receptor antagonists” (Florida State University Research Foundation, Inc., priority 2015, dated 2019)
“Also recorded” adds a separate entry of the source.

Key:
[1] = tested on: prenatally cocaine-exposed mice; assay: Odor versus odor discrimination (two-odor discrimination testing); format: in vivo, mouse (Swiss Webster); settings: ANA-12 i.p. twice a day, 1 mg/kg/day; data not shown
Experimental: (§1) Olfactometry: Reversal learning was assayed in an automated olfactometer based on odor learning and detection using water as reward (41, 42). Briefly, odorants were presented via an 8-channel liquid dilution computerized olfactometer (Knosys LD8-1, Tampa, Fla.) so that odorant threshold determinations were automated and stimulus concentration, timing of onset and offset, and stimulus control of behavior could be controlled reliably. We modified our Knosys system to provide additional mechanical dampening of the solenoid pinch valves to permit incorporation of materials for mounting the machine in-line with sterilization of the olfactometer.
During the go no-go operant training mice inserted their snout into the odor sampling port to initiate a trial and waited until the odor stimulus was presented. […] The mice were rewarded for lick decisions paired with a positively entrained odor (S+) and also for correct rejections paired with a negatively entrained odor (S−). This establishes the “go no-go” reward criteria. The percentage of correct responses per trial was determined by the formula: % correct responses=[(HITs+Correct Rejections)/20]×100, where a HIT is defined as a criterion response in the presence of S+, and a Correct Rejection (CR) is a failure to make a criterion response in the presence of […] 20 represents the number of trials per block. […]

TrkC = TrkC (Homo sapiens, UniProt Q16288); settings: cited from earlier work
Chain of TrkC (Q16288 32-839, species assumed): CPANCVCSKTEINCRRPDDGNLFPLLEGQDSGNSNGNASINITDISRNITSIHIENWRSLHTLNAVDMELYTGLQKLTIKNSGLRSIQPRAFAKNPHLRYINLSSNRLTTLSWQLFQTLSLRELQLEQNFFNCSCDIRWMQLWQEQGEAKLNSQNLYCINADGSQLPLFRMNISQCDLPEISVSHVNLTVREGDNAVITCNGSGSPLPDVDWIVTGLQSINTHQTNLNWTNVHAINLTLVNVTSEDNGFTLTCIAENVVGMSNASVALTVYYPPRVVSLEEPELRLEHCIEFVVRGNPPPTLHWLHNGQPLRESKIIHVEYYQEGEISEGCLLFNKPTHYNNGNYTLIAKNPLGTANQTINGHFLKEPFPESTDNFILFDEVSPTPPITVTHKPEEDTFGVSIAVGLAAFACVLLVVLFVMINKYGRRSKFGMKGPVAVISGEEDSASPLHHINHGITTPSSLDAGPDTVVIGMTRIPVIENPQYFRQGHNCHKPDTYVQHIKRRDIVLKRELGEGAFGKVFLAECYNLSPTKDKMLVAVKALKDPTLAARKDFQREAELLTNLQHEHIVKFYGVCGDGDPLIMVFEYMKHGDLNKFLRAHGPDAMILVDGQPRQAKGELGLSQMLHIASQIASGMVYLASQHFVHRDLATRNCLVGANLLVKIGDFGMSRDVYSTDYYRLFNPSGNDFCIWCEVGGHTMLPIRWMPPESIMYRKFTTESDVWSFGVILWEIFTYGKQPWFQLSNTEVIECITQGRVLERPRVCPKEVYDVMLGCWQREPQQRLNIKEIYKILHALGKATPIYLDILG

[2] = tested on: prenatally cocaine-exposed mice; assay: Olfactory (odor) reversal learning, go no-go olfactometer paradigm; format: in vivo, mouse (Swiss Webster)
Experimental: Swiss Webster mice were housed in a temperature and humidity controlled environment on a 12 hr light/dark cycle with food and water available ad libitum were bred to obtain timed pregnancies.
Singly housed dams received twice daily (7 AM and 7 PM) subcutaneous injections of cocaine (20 mg/kg/injection: total daily dose=40 mg/kg/day) or saline (same volume and time of administration as the cocaine injection) from the 8th day of pregnancy until the day of birth. The period of cocaine exposure corresponds to mid-first trimester of human pregnancies.
as §1
The Knosys olfactometer employs operant conditioning in the form of both positive and negative reinforcements. Positive reinforcement is used when pairing an odorant with water reward (S+). A 10-second time out or negative reinforcement occurs as a result of a mouse responding to a negative cue or diluent (S−). Mice were therefore trained in a classical “go no-go” operant conditioning paradigm to recognize an odorant.
Operant training: Mice were water-deprived to 85% of their baseline bodyweight to motivate them for a water reward. Operant training was performed using a step-wise battery of tasks that began with reward reinforcement for learning to lick a water delivery tube and snout insertion into the odor sampling port. Mice advanced to the next stage after 30 reinforcements. Next, mice were reinforced for lick decisions paired with a positively entrained odor (S+). They were required to nose poke for an extended period of time to sample an odor prior to receiving water reinforcement.
During the go no-go operant training mice inserted their snout into the odor sampling port to initiate a trial and waited until the odor stimulus was presented. […] The mice were rewarded for lick decisions paired with a positively entrained odor (S+) and also for correct rejections paired with a negatively entrained odor (S−). This establishes the “go no-go” reward criteria. The percentage of correct responses per trial was determined by the formula: % correct responses=[(HITs+Correct Rejections)/20]×100, where a HIT is defined as a criterion response in the presence of S+, and a Correct Rejection (CR) is a failure to make a criterion response in the presence of […] 20 represents the number of trials per block.
Odor Reversal Learning: Once mice achieved criteria performance on the two-odor discrimination testing for a week, mice underwent an odor-reversal learning paradigm. Here mice were introduced to the switch (reversal) of the S+ for the S− stimulus where the previously rewarded odor stimulus now lacked the water reward and the previously unrewarded odor stimulus was now paired with the water reward.
The scent stimuli used were 5% Ethyl Acetate (EA) and 1% Acetophenone (AP).
Upon successful completion of the training phase and odor discrimination phase a subset of mice were randomly assigned to the ANA-12 injection group. ANA-12 (Sigma Aldrich, St. Louis, Mo.; SML0209) was administered twice daily [0.5 mg/kg; 1.0 mg/kg/day intraperitoneal (i.p.)] for 13 consecutive days. ANA-12 was dissolved in 100% DMSO (stock), and diluted further such that the final concentration of DMSO administered to the mice was 1%. On days 8-10 of the injection period, the mice were water deprived (to 85% of pre-deprivation weight). […]

TrkA = TrkA (Homo sapiens, UniProt P04629); settings: cited from earlier work
Chain of TrkA (P04629 33-796, species assumed): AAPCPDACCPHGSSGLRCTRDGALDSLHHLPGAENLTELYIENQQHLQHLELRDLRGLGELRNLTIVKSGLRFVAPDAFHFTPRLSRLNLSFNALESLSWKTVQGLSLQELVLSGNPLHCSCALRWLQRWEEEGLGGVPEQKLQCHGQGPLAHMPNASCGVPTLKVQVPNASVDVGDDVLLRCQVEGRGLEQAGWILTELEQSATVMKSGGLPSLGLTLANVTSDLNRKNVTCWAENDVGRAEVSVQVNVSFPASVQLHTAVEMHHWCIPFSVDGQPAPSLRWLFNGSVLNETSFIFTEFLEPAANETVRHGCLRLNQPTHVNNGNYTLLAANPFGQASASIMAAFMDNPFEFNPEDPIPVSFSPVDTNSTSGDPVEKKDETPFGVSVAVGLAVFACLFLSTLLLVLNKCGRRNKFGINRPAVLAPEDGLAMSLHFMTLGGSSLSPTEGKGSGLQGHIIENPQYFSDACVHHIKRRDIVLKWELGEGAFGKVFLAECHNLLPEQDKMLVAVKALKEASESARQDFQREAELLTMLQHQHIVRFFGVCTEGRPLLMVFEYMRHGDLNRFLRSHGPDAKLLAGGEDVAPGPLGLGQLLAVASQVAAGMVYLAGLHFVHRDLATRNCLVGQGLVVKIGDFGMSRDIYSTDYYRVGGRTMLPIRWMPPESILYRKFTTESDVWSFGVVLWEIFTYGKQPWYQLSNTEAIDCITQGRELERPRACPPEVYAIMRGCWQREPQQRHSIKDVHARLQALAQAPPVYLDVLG

mice = mice dosed with ANA-12; Cazorla et al., J. Clin. Invest. 121(5), 1846-57 (2011); cited from earlier work

O=C(Nc1ccccc1C(=O)NC1CCCCNC1=O)c1cc2ccccc2s1 (stereo not shown) [ANA-12, N-[2-[[(Hexahydro-2-oxo-1H-azepin-3-yl)amino]carbonyl]phenyl]-benzo[b]thiophene-2-carboxamide]
correct hits in odor versus odor discrimination [1]: > 80%
effect on TrkC functions (TrkC): without substantially altering
performance in the reversal paradigm ([2]; ANA-12 treated prenatally cocaine-exposed mice vs prenatally cocaine-exposed mice, i.p. 1 mg/kg/day, 13 days, 1 mg/kg/day): performed better; also recorded: significant improvement in performance
cognitive flexibility of treated subjects ([2]; ANA-12 treatment, summary statement): a statistically significant number of subjects tested showed improved cognitive flexibility
Number of trials to reach criteria (≥80%), Mean±SEM ([2]; Cocaine+ANA12 group, i.p. 1 mg/kg/day, 13 days): 255.0±9.6
difference in number of trials to reach criteria vs saline-exposed mice ([2]; Mann-Whitney's U test, saline vs cocaine+ANA-12, p>0.05): no significant difference
time course of reversal learning vs saline-exposed mice ([2]; Student's t-test, p>0.05): not significantly different
median number of trials needed to reach criteria following reversal of the odors ([2]; cocaine+ANA-12 group): 290
mean rank, Mann-Whitney's U test, number of trials to reach criteria ([2]; cocaine+ANA-12 group vs saline (U=3.5, p>0.05)): 22.5
% correct responses in reversal learning, post-hoc Bonferroni comparison cocaine versus cocaine+ANA-12 ([2]; day 2 (blocks 11-20), t=3.557, df=124, p<0.01, FIG. 2A): significant difference
percentage of mice that reached criteria (at least 80% correct) over the two days ([2]; prenatally cocaine-exposed mice injected with ANA-12, FIG. 2B): 57%
effect on TrkA functions (TrkA): without substantially altering
anxiety- and depression-related behaviors (mice): reduced anxiety- and depression-related behaviors
